Experimental data as given in PubChem BioAssay AID2060325 (Molecular Pharmacology Branch, DTP, NCI, 2025).

Tested on: SK-OV-3 multi-cell spheroids, viability
Assay: Anticancer human tumor SK-OV-3 cell line growth inhibition [IpAb];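 as to viability, T/C: viability read after seven days of drug exposure; percent of DMSO vehicle control luminescence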
Settings: for IC50: curve of first compound; for viability, T/C: stronger effect = lower value
From the text: Combinatorial screen of targeted agents with ipatasertib and abemaciclib in multi-cell type tumor spheroids
A high-throughput screen of multi-cell type tumor spheroids was designed to identify active combinations of targeted small molecules and ipatasertib or abemaciclib. Complex spheroids include a stromal component modeled by human endothelial cells (HUVEC) and fibroblasts modeled by human mesenchymal stem cells (MSCs). The concentration ranges selected for each drug and investigational agent were based upon clinically achievable concentrations if the clinical Cmax of the agent was known.
Compounds. The drugs and investigational agents: ipatasertib (NSC767898), abemaciclib(NSC768073), selumetinib (NSC741078), trametinib (758246), adavosertib (NSC754352), everolimus (NSC733504), sapanisertib (NSC764658), vemurafenib (NSC761431), venetoclax (NSC766270), copanlisib (NSC809693), apelisib (NSC765974), palbociblib (NSC758247), vemurafenib (NSC761431), dabrafenib (NSC764134), ravoxertinib (NSC781343), BMS-387032 (NSC767048), sotorasib (NSC818433), talazoparib (NSC767125) and afursertib (NSC778305), were obtained from the National Cancer Institute (NCI) Developmental Therapeutics Program Chemical Repository. The FDA-approved anticancer drug set is available from the NCI Developmental Therapeutics Program. […] The stock solutions were prepared in dimethyl sulfoxide (DMSO, Sigma-Aldrich, St. Louis, MO, cat. D2650) at 800-fold the tested concentration and stored at -70 degrees C prior to their use. All drugs and investigational agents were tested over a range starting from a high concentration at or near the clinical Cmax and decreasing in half-log increments. If the clinical Cmax for an agent had not been determined, the highest concentration tested was 10 microM.
NCI60 Cell Culture. NCI60 cell lines were obtained from the NCI Developmental Therapeutics Program Tumor Repository. For each lot of cells, the Repository performed Applied Biosystems AmpFLSTR Identifiler testing with PCR amplification to confirm consistency with the published Identifier STR profile for each cell line. Cells were kept in continuous culture for no more than 20 passages. The optimal seeding densities for each of the cell lines at each time point assessed were determined prior to performing the concentration response studies. Briefly, the NCI60 human tumor lines were grown as monolayers in RPMI 1640 medium supplemented with 10% FBS and 2 mmol/L L-glutamine.
An additional 9 lines were from the NCI60 cell line panel including MDA-MB-231 breast carcinoma, MDA-MB-468 breast carcinoma, MCF7 breast carcinoma, Hs578T breast carcinoma, MALME-3M melanoma, SK-MEL-2 melanoma, SK-OV-3 ovarian carcinoma, DU-145 prostate carcinoma, PC-3 prostate carcinoma, all cell lines along with major genetic alterations are listed on Table 2. Pooled donor human umbilical vein endothelial cells (HUVEC, Lonza, cat. CC-2519) and human mesenchymal stem cells (hMSC, Lonza, cat. PT-2501) were purchased from Lonza (Walkersville, MD).
PDMR cell lines were grown in complete medium (DC medium): Dulbecco's modified Eagle's medium (DMEM)/F12 supplemented with 5% fetal bovine serum (FBS), 2 mM L-glutamine, 100 U/mL penicillin and 100 µg/ml streptomycin, 0.4 µg/ml hydrocortisone, 10 ng/ml epidermal growth factor (EGF) recombinant human protein, 24 µg/mL adenine, and 0.1 mg/mL primocin. During culture from frozen stock vials, PDMR cells were cultured in the same medium containing 10 µM Y-27632 (see Table 3). The PDCs were cultured in complete DMEM/F12 media without 10 microM Y-27632 dihydrochloride for at least two passages prior to the screen. The pooled donor HUVEC and hMSC were cultured in endothelial cell growth medium 2 (PromoCell, Heidelberg, Germany, cat. C-22011) and mesenchymal stem cell growth medium 2 (PromoCell, cat. C-28009), respectively. For all experiments, HUVEC and hMSC were used at passages </=5.
[…]

C=CCn1c(=O)c2cnc(Nc3ccc(N4CCN(C)CC4)cc3)nc2n1-c1cccc(C(C)(C)O)n1 + CC(C)NCC(C(=O)N1CCN(c2ncnc3c2C(C)CC3O)CC1)c1ccc(Cl)cc1 showed an IC50 (second compound 0.1 µM) of 59.1 nM, an IC50 (second compound 0.316 µM) of under 31.6 nM and an IC50 (second compound 1 µM) of under 31.6 nM. It also gave an IC50 (second compound 3.16 µM) of under 31.6 nM, an IC50 (second compound 10 µM) of under 31.6 nM and a viability, T/C (second compound 0.1 µM, first compound 0.0316 µM) of 66.1%. It also gave a viability, T/C (second compound 0.1 µM, first compound 0.1 µM) of 36.5%, a viability, T/C (second compound 0.1 µM, first compound 0.316 µM) of 10% and a viability, T/C (second compound 0.1 µM, first compound 1 µM) of 7.27%. The viability, T/C (second compound 0.1 µM, first compound 3.16 µM) was 4.83%, the viability, T/C (second compound 0.1 µM, first compound 10 µM) was 6.07% and the viability, T/C (second compound 0.316 µM, first compound 0.0316 µM) was 37.5%. It also gave a viability, T/C (second compound 0.316 µM, first compound 0.1 µM) of 24.6%, a viability, T/C (second compound 0.316 µM, first compound 0.316 µM) of 6.94% and a viability, T/C (second compound 0.316 µM, first compound 1 µM) of 7.44%. For the same molecule, the viability, T/C (second compound 0.316 µM, first compound 3.16 µM) was 6.92%, the viability, T/C (second compound 0.316 µM, first compound 10 µM) was 6.99% and the viability, T/C (second compound 1 µM, first compound 0.0316 µM) was 19.2%. For the same molecule, the viability, T/C (second compound 1 µM, first compound 0.1 µM) was 13.9%, the viability, T/C (second compound 1 µM, first compound 0.316 µM) was 4.18% and the viability, T/C (second compound 1 µM, first compound 1 µM) was 6.74%. For the same molecule, the viability, T/C (second compound 1 µM, first compound 3.16 µM) was 7.21%, the viability, T/C (second compound 1 µM, first compound 10 µM) was 6.84% and the viability, T/C (second compound 3.16 µM, first compound 0.0316 µM) was 13.8%. It also gave a viability, T/C (second compound 3.16 µM, first compound 0.1 µM) of 8.92%, a viability, T/C (second compound 3.16 µM, first compound 0.316 µM) of 2.61% and a viability, T/C (second compound 3.16 µM, first compound 1 µM) of 3.21%. The viability, T/C (second compound 3.16 µM, first compound 3.16 µM) was 8.27%, the viability, T/C (second compound 3.16 µM, first compound 10 µM) was 5.57% and the viability, T/C (second compound 10 µM, first compound 0.0316 µM) was 8.99%. The viability, T/C (second compound 10 µM, first compound 0.1 µM) was 4.85%, the viability, T/C (second compound 10 µM, first compound 0.316 µM) was 1.17% and the viability, T/C (second compound 10 µM, first compound 1 µM) was 2.53%. The viability, T/C (second compound 10 µM, first compound 3.16 µM) was 4.96% and the viability, T/C (second compound 10 µM, first compound 10 µM) was 3.52%.

Cn1cnc2c(F)c(Nc3ccc(Br)cc3Cl)c(C(=O)NOCCO)cc21 + CC(C)NCC(C(=O)N1CCN(c2ncnc3c2C(C)CC3O)CC1)c1ccc(Cl)cc1 showed an IC50 (second compound 0.1 µM) of 164 nM, an IC50 (second compound 0.316 µM) of under 9.49 nM and an IC50 (second compound 1 µM) of under 9.49 nM. The IC50 (second compound 3.16 µM) was under 9.49 nM, the IC50 (second compound 10 µM) was under 9.49 nM and the viability, T/C (second compound 0.1 µM, first compound 0.00949 µM) was 61.9%. It also gave a viability, T/C (second compound 0.1 µM, first compound 0.03 µM) of 62%, a viability, T/C (second compound 0.1 µM, first compound 0.0949 µM) of 49.1% and a viability, T/C (second compound 0.1 µM, first compound 0.3 µM) of 48%. The viability, T/C (second compound 0.1 µM, first compound 0.949 µM) was 35.8%, the viability, T/C (second compound 0.1 µM, first compound 3 µM) was 19.7% and the viability, T/C (second compound 0.316 µM, first compound 0.00949 µM) was 33.9%. For the same molecule, the viability, T/C (second compound 0.316 µM, first compound 0.03 µM) was 30.4%, the viability, T/C (second compound 0.316 µM, first compound 0.0949 µM) was 25.8% and the viability, T/C (second compound 0.316 µM, first compound 0.3 µM) was 21.6%. For the same molecule, the viability, T/C (second compound 0.316 µM, first compound 0.949 µM) was 18.6%, the viability, T/C (second compound 0.316 µM, first compound 3 µM) was 10.3% and the viability, T/C (second compound 1 µM, first compound 0.00949 µM) was 19.6%. It also gave a viability, T/C (second compound 1 µM, first compound 0.03 µM) of 16.7%, a viability, T/C (second compound 1 µM, first compound 0.0949 µM) of 15.2% and a viability, T/C (second compound 1 µM, first compound 0.3 µM) of 11.8%. The viability, T/C (second compound 1 µM, first compound 0.949 µM) was 9.36%, the viability, T/C (second compound 1 µM, first compound 3 µM) was 4.86% and the viability, T/C (second compound 3.16 µM, first compound 0.00949 µM) was 13.5%. For the same molecule, the viability, T/C (second compound 3.16 µM, first compound 0.03 µM) was 11.4%, the viability, T/C (second compound 3.16 µM, first compound 0.0949 µM) was 9.44% and the viability, T/C (second compound 3.16 µM, first compound 0.3 µM) was 9.1%. The viability, T/C (second compound 3.16 µM, first compound 0.949 µM) was 6.43%, the viability, T/C (second compound 3.16 µM, first compound 3 µM) was 3.45% and the viability, T/C (second compound 10 µM, first compound 0.00949 µM) was 6.91%. The viability, T/C (second compound 10 µM, first compound 0.03 µM) was 7.44%, the viability, T/C (second compound 10 µM, first compound 0.0949 µM) was 7.64% and the viability, T/C (second compound 10 µM, first compound 0.3 µM) was 5.26%. The viability, T/C (second compound 10 µM, first compound 0.949 µM) was 4.92% and the viability, T/C (second compound 10 µM, first compound 3 µM) was 2.28%.
